In ChEMBL document CHEMBL5724914, “Linking interpersonal differences in gut microbiota composition and drug biotransformation activity” (2024):

How the values were obtained:
[1] = (§1) The drug is tested on WLS-350 corresponding to human gut metagenome with ENA study accession number: PRJEB37062 and ENA sample accession number: ERS12561789 for biotransformation under anaerobic condition. The drug concentrations were measured over 9 timepoints collected between 0 and 24 hours of incubation by liquid-chromatography-coupled mass spectrometry (LC–MS); conditions: 2 µM
[2] = as §1, with “Z-018” for “WLS-350”, “pig” for “human”, “ERS12561817” for “ERS12561789”; conditions: 2 µM
[3] = as §1, with “Z-006” for “WLS-350”, “mouse” for “human”, “ERS12561806” for “ERS12561789”; conditions: 2 µM
[4] = as §1, with “WLS-170” for “WLS-350”, “ERS12561762” for “ERS12561789”; conditions: 2 µM
[5] = as §1, with “WLS-310” for “WLS-350”, “ERS12561785” for “ERS12561789”; conditions: 2 µM
[6] = as §1, with “WLS-039” for “WLS-350”, “ERS12561746” for “ERS12561789”; conditions: 2 µM
[7] = human gut metagenome, 24 h, 2 µM
[8] = human gut metagenome, 24 h, 2 µM; remark: listed apart in the source
[9] = human gut metagenome, 24 h, 2 µM; remark: listed apart in the source
[10] = human gut metagenome, 24 h, 2 µM; remark: listed apart in the source
[11] = as §1, with “WLS-010” for “WLS-350”, “ERS12561743” for “ERS12561789”; conditions: 2 µM
[12] = human gut metagenome, 24 h, 2 µM; remark: listed apart in the source
[13] = human gut metagenome, 24 h, 2 µM; remark: listed apart in the source
[14] = as §1, with “WLS-086” for “WLS-350”, “ERS12561752” for “ERS12561789”; conditions: 2 µM
[15] = as §1, with “WLS-069” for “WLS-350”, “ERS12561748” for “ERS12561789”; conditions: 2 µM
[16] = human gut metagenome, 24 h, 2 µM; remark: listed apart in the source
[17] = as §1, with “Z-030” for “WLS-350”, “mouse” for “human”, “ERS12561829” for “ERS12561789”; conditions: 2 µM
[18] = as §1, with “Z-017” for “WLS-350”, “mouse” for “human”, “ERS12561816” for “ERS12561789”; conditions: 2 µM
[19] = human gut metagenome, 24 h, 2 µM; remark: listed apart in the source
[20] = as §1, with “Z-028” for “WLS-350”, “mouse” for “human”, “ERS12561827” for “ERS12561789”; conditions: 2 µM
Also: call rule not given here.

Structure (SMILES) | Bacterial Biotransformation [1] | Bacterial Biotransformation [2] | Bacterial Biotransformation [3] | Bacterial Biotransformation [4] | Bacterial Biotransformation [5] | Bacterial Biotransformation [6] | Bacterial Biotransformation [7] | Bacterial Biotransformation [8] | Bacterial Biotransformation [9] | Bacterial Biotransformation [10] | Bacterial Biotransformation [11] | Bacterial Biotransformation [12] | Bacterial Biotransformation [13] | Bacterial Biotransformation [14] | Bacterial Biotransformation [15] | Bacterial Biotransformation [16] | Bacterial Biotransformation [17] | Bacterial Biotransformation [18] | Bacterial Biotransformation [19] | Bacterial Biotransformation [20]
Clc1ccc(Cn2c(CN3CCCC3)nc3ccccc32)cc1 [CLEMIZOLE] | Compound metabolized | Compound metabolized | Compound NOT metabolized | Compound metabolized | Compound metabolized | Compound metabolized | Compound metabolized | Compound metabolized | Compound metabolized | Compound metabolized | Compound NOT metabolized | Compound NOT metabolized | Compound NOT metabolized | Compound metabolized | Compound metabolized | Compound metabolized | Compound NOT metabolized | Compound NOT metabolized | Compound metabolized | Compound NOT metabolized
CCCCC1=NC2(CCCC2)C(=O)N1Cc1ccc(-c2ccccc2-c2nnn[nH]2)cc1 [IRBESARTAN] | Compound metabolized | Compound metabolized | Compound metabolized | Compound metabolized | Compound metabolized | Compound metabolized | Compound metabolized | Compound metabolized | Compound metabolized | Compound metabolized | Compound metabolized | Compound metabolized | Compound metabolized | Compound metabolized | Compound metabolized | Compound metabolized | Compound NOT metabolized | Compound NOT metabolized | Compound metabolized | Compound NOT metabolized
CCN(CC)CCNC(C(=O)OCCC(C)C)c1ccccc1.Cl.Cl (stereo not given) | Compound metabolized | Compound metabolized | Compound NOT metabolized | Compound metabolized | Compound metabolized | Compound NOT metabolized | Compound metabolized | Compound metabolized | Compound metabolized | Compound metabolized | Compound metabolized | Compound metabolized | Compound NOT metabolized | Compound metabolized | Compound metabolized | Compound metabolized | Compound NOT metabolized | Compound NOT metabolized | Compound metabolized | Compound NOT metabolized
CC(C)OC(=O)C(C)(C)Oc1ccc(C(=O)c2ccc(Cl)cc2)cc1 [FENOFIBRATE] | Compound NOT metabolized | Compound metabolized | Compound metabolized | Compound metabolized | Compound metabolized | Compound NOT metabolized | Compound metabolized | Compound metabolized | Compound NOT metabolized | Compound metabolized | Compound NOT metabolized | Compound NOT metabolized | Compound metabolized | Compound metabolized | Compound NOT metabolized | Compound metabolized | Compound metabolized | Compound metabolized | Compound metabolized | Compound metabolized
COc1ccccc1OCC(O)CN1CCN(CC(=O)Nc2c(C)cccc2C)CC1 (stereo not given) [RANOLAZINE] | Compound NOT metabolized | Compound NOT metabolized | Compound NOT metabolized | Compound NOT metabolized | Compound NOT metabolized | Compound NOT metabolized | Compound NOT metabolized | Compound NOT metabolized | Compound NOT metabolized | Compound NOT metabolized | Compound NOT metabolized | Compound NOT metabolized | Compound NOT metabolized | Compound metabolized | Compound NOT metabolized | Compound NOT metabolized | Compound NOT metabolized | Compound NOT metabolized | Compound NOT metabolized | Compound NOT metabolized
CC(C)(C)NC[C@H](O)COc1ccccc1C1CCCC1.CC(C)(C)NC[C@H](O)COc1ccccc1C1CCCC1.O=S(=O)(O)O [PENBUTOLOL SULFATE] | Compound metabolized | Compound metabolized | Compound NOT metabolized | Compound metabolized | Compound metabolized | Compound metabolized | Compound metabolized | Compound metabolized | Compound metabolized | Compound metabolized | Compound metabolized | Compound metabolized | Compound metabolized | Compound metabolized | Compound metabolized | Compound metabolized | Compound NOT metabolized | Compound NOT metabolized | Compound metabolized | Compound NOT metabolized
CN1CCN(C(=O)O[C@H]2c3nccnc3C(=O)N2c2ccc(Cl)cn2)CC1 [ESZOPICLONE] | Compound NOT metabolized | Compound NOT metabolized | Compound NOT metabolized | Compound NOT metabolized | Compound NOT metabolized | Compound NOT metabolized | Compound NOT metabolized | Compound NOT metabolized | Compound NOT metabolized | Compound NOT metabolized | Compound NOT metabolized | Compound NOT metabolized | Compound NOT metabolized | Compound NOT metabolized | Compound NOT metabolized | Compound NOT metabolized | Compound NOT metabolized | Compound NOT metabolized | Compound NOT metabolized | Compound NOT metabolized
OC(CCN1CCCCC1)(c1ccccc1)C1CCCCC1 (stereo not given) [TRIHEXYPHENIDYL] | Compound NOT metabolized | Compound metabolized | Compound NOT metabolized | Compound metabolized | Compound metabolized | Compound metabolized | Compound metabolized | Compound metabolized | Compound NOT metabolized | Compound metabolized | Compound NOT metabolized | Compound metabolized | Compound metabolized | Compound metabolized | Compound metabolized | Compound metabolized | Compound NOT metabolized | Compound NOT metabolized | Compound metabolized | Compound NOT metabolized
